In patent US12600726B2, “Antagonists of the muscarinic acetylcholine receptor M4” (Vanderbilt University, priority 2017, dated 2026):

What was measured:
Rat M4 = target: T1, Rat M4 (Rattus norvegicus, UniProt P08485); assay: mAChR M4 cell-based functional calcium flux assay (rat M4/Gqi5/CHO cells); conditions: for Emin (rat M4): % ACh maximum at 30 μM; for IC50: decrease of the response to an EC80 concentration of acetylcholine
T1 construct: expressed in transfected cells; host or cells: CHO-K1 (ATCC), stably expressing M4 and Gqi5
T1 sequence (P08485 1-478): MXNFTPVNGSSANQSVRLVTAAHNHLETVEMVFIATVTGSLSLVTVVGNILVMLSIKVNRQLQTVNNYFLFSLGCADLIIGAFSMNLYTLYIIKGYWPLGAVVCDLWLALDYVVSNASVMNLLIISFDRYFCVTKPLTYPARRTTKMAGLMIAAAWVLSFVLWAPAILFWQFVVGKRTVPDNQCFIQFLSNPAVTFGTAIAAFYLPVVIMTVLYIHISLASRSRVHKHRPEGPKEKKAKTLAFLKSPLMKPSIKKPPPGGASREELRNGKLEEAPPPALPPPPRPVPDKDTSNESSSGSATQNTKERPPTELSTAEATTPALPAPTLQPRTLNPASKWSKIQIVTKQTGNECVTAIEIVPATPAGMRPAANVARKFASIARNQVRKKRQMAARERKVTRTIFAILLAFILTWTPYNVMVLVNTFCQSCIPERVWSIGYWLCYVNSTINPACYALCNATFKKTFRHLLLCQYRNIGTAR
In short: (§1)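 CHO-K1 cells stably co-expressing M4 of the given species with chimeric Gqi5 were loaded with Fluo-4 AM and read for calcium flux. Compounds (10-point, 1:3 dilutions) were added first, followed by an acetylcholine EC20 at 143 s and an EC80 at 268 s. IC50 reflects the concentration-dependent fall in the EC80 response, fitted with a four-parameter logistic.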

Human M4 = target: T2, Human M4 (Homo sapiens, UniProt P08173); assay: mAChR M4 cell-based functional calcium flux assay (human M4/Gqi5/CHO cells); conditions: for Emin (human M4): % ACh maximum at 30 μM; for IC50: decrease of the response to an EC80 concentration of acetylcholine
T2 construct: expressed in transfected cells; host or cells: CHO-K1 (ATCC), stably expressing M4 and Gqi5
T2 sequence (P08173 1-479): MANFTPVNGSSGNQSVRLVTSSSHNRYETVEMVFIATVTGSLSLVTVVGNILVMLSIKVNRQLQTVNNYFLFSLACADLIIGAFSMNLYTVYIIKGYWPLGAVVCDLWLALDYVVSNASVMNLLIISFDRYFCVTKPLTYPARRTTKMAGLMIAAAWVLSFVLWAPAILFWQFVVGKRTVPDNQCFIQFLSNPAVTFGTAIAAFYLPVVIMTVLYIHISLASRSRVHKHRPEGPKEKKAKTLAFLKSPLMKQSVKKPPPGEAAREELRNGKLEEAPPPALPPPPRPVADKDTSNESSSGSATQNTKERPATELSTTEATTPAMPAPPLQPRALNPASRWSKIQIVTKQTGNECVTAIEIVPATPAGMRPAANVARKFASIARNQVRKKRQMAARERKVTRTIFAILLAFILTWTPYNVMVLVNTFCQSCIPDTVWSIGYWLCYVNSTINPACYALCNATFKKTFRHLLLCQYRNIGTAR
In short: as §1

Emin (rat M4) (Rat M4) [%]	IC50 (Rat M4) [nM]	Emin (human M4) (Human M4) [%]	IC50 (Human M4) [nM]	Structure (SMILES)
4.05	24	3.30	3.71	Cn1nccc1-c1ccc(NCC2CC23CCN(CCC(C)(C)C)CC3)nn1 (stereo not drawn) [Compound 38, N-[[6-(3,3-dimethylbutyl)-6-azaspiro[2.5]octan-2-yl]methyl]-6-(2-methylpyrazol-3-yl)pyridazin-3-amine]
3.96	170	3.29	45.2	Cc1nn(C)cc1-c1ccc(NCC2CC23CCN(CC2CC4C=CC2C4)CC3)nc1 (stereo not drawn) [Compound 70, N-[[6-(5-bicyclo[2.2.1]hept-2-enylmethyl)-6-azaspiro[2.5]octan-2-yl]methyl]-5-(1,3-dimethylpyrazol-4-yl)pyridin-2-amine]
4.58	1880	3.31	543	Cc1nn(C)cc1-c1ccc(NCC2CC23CCN(CC(c2ccccc2)c2ccccc2)CC3)nn1 (stereo not drawn) [Compound 59, 6-(1,3-dimethylpyrazol-4-yl)-N-[[6-(2,2-diphenylethyl)-6-azaspiro[2.5]octan-2-yl]methyl]pyridazin-3-amine]
6	12.9	4	1.8	Fc1ccc(Cl)c(-c2ccc(NC[C@@H]3CC34CCN(CC3CCOCC3)CC4)nn2)c1 [Compound 107, (R)-6-(2-chloro-5-fluoro-phenyl)-N-[[6-(tetrahydropyran-4-ylmethyl)-6-azaspiro[2.5]octan-2-yl]methyl]pyridazin-3-amine]
4	307	4	85.2	CC(C)(C)CCN1CCC2(CC1)CC2CNc1ccc(N2CCCC2)nn1 (stereo not drawn) [Compound 81, N-[[6-(3,3-dimethylbutyl)-6-azaspiro[2.5]octan-2-yl]methyl]-6-pyrrolidin-1-yl-pyridazin-3-amine]
10.8	3640	65.0	928	Cc1cnn(C)c1-c1ccc(NC(=O)C2CC23CCN(CC2CC4C=CC2C4)CC3)nn1 (stereo not drawn) [Compound 8, 6-(5-bicyclo[2.2.1]hept-2-enylmethyl)-N-[6-(2,4-dimethylpyrazol-3-yl)pyridazin-3-yl]-6-azaspiro[2.5]octane-2-carboxamide]
3.42	58.1	2.60	13.7	Cn1nc(C(F)(F)F)cc1-c1ccc(NCC2CC23CCN(CCC(C)(C)C)CC3)nn1 (stereo not drawn) [Compound 39, N-[[6-(3,3-dimethylbutyl)-6-azaspiro[2.5]octan-2-yl]methyl]-6-[2-methyl-5-(trifluoromethyl)pyrazol-3-yl]pyridazin-3-amine]
6	48.2	3	5.06	C1=CC2CC1CC2CN1CCC2(CC1)CC2CNc1ccc(N2CCOCC2)nn1 (stereo not drawn) [Compound 82, N-[[6-(5-bicyclo[2.2.1]hept-2-enylmethyl)-6-azaspiro[2.5]octan-2-yl]methyl]-6-morpholino-pyridazin-3-amine]
2.87	68.8	3.03	22.1	COc1ccc(F)cc1-c1ccc(NCC2CC23CCN(CCC(C)(C)C)CC3)nn1 (stereo not drawn) [Compound 31, N-[[6-(3,3-dimethylbutyl)-6-azaspiro[2.5]octan-2-yl]methyl]-6-(5-fluoro-2-methoxy-phenyl)pyridazin-3-amine]
3.44	47.8	2.58	3.15	Cc1cnn(C)c1-c1ccc(NCC2CC23CCN(CCC(C)(C)C)CC3)nn1 (stereo not drawn) [Compound 35, N-[[6-(3,3-dimethylbutyl)-6-azaspiro[2.5]octan-2-yl]methyl]-6-(2,4-dimethylpyrazol-3-yl)pyridazin-3-amine]
4.86	779	4.42	1260	CC(C)(C)CCN1CCC2(CC1)CC2CNc1ncc(-c2ccccc2)s1 (stereo not drawn) [Compound 72, N-[[6-(3,3-dimethylbutyl)-6-azaspiro[2.5]octan-2-yl]methyl]-5-phenyl-thiazol-2-amine]
4	7.53	6	2.04	CC(=O)Nc1ccc(-c2ccc(NC[C@@H]3CC34CCN(CCC(C)(C)C)CC4)nn2)cc1 [Compound 111, N-[4-[6-[[(2R)-6-(3,3-dimethylbutyl)-6-azaspiro[2.5]octan-2-yl]methylamino]pyridazin-3-yl]phenyl]acetamide]
3.68	33.2	2.90	11	CC(C)(C)CCN1CCC2(CC1)C[C@H]2CNc1ccc(-c2cc(F)ccc2Cl)nn1 [Compound 64, (R)-6-(2-chloro-5-fluoro-phenyl)-N-[[6-(3,3-dimethylbutyl)-6-azaspiro[2.5]octan-2-yl]methyl]pyridazin-3-amine]
5	114	4	41.2	CC(C)(C)CCN1CCC2(CC1)CC2CNc1ccc(N2CCC(F)(F)C2)nn1 (stereo not drawn) [Compound 75, 6-(3,3-difluoropyrrolidin-1-yl)-N-((6-(3,3-dimethylbutyl)-6-azaspiro[2.5]octan-1-yl)methyl)pyridazin-3-amine]
2.44	94.3	2.64	12.8	CC(C)(C)CCN1CCC2(CC1)CC2CNc1ccc(-c2cnccc2C(F)(F)F)nn1 (stereo not drawn) [Compound 49, N-[[6-(3,3-dimethylbutyl)-6-azaspiro[2.5]octan-2-yl]methyl]-6-[4-(trifluoromethyl)-3-pyridyl]pyridazin-3-amine]
